Here are results for 10 compounds from patent US10023544B2, “Heterocyclic compound” (Takeda Pharmaceutical Company Limited, priority 2014, dated 2018).

For orientation: inhibition means the drop in the measured response relative to a control, in per cent.

Experiment [1] has as its target T1, Human recombinant enteropeptidase (Homo sapiens, UniProt P98073).
T1 construct: purchased ITSI-Biosciences, LLC #REN-260
Kind of experiment: Human enteropeptidase inhibitory activity. Type of experiment: biochemical. The conditions noted are these: 3.3 uM test compound; fluorescence intensity 2 hours after start of reaction; read-out: Inhibition rate at 3.3 uM (%). Here is the method: Human recombinant enteropeptidase (#REN-260, ITSI-Biosciences, LLC) was diluted with an assay buffer (50 mM Tricine (pH 8.0), 0.01 (w/v) % Tween 20, 10 mM CaCl2) to prepare a 24 mU/mL enzyme solution. Subsequently, 5FAM-Abu-Gly-Asp-Asp-Asp-Lys-Ile-Val-Gly-Gly-Lys(CPQ2)-Lys-Lys-NH2 (purity: 97.2%, CPC Scientific, Inc.) produced according to a synthesis method known per se was diluted with an assay buffer to prepare a 2.1 uM (“u” represents “micro”) substrate solution. Each test compound was dissolved in DMSO to prepare a 1 mM solution, which was then diluted 100-fold with an assay buffer to prepare a compound solution. The compound solution (5 uL/well) and the substrate solution (5 uL/well) were added to a 384-well black plate (#784076, Greiner Bio-One) and mixed. Then, the enzyme solution (5 uL/well) was added to the plate and mixed to start reaction. The fluorescence intensity was measured at an excitation wavelength of 485 nm and a fluorescence wavelength of 535 nm using a fluorescence plate reader EnVision (PerkinElmer Inc.). Also, the same reaction as above was performed except that the test compound was not added (test compound non-supplemented group). In addition, the same reaction as above was performed except that neither the test compound nor the enzyme was added (control group). The inhibition rate was calculated from the fluorescence intensity 2 hours after the start of the reaction according to the following equation: Inhibition rate (%)=(1−(Fluorescence intensity of the test compound supplemented group−Fluorescence intensity of the control group)/(Fluorescence intensity of the test compound non-supplemented group−Fluorescence intensity of the control group))×100

The test system of a further experiment is HFD-fed mouse. The experiment can be described thus: Test on elevation of protein concentration in feces using HFD-fed mouse. Type of experiment: in vivo. The conditions noted are these: 10 mg/kg oral, whole feces at day 1 of administration, mean ± SD. Here is the method: A 0.5% methylcellulose suspension (test compound administered group, 5 mice per group) containing each test compound (10 mg/kg) or a 0.5% methylcellulose suspension (test compound non-administered group (vehicle), 5 mice per group) was orally administered to each high fat diet-fed (HFD-fed) mouse (D12079B diet, male, 15 weeks old), and the whole feces were recovered at day 1 of administration. The dry feces were dissolved in a 0.5 N aqueous sodium hydroxide solution. After centrifugation at 12,000 rpm, a protein concentration was quantified (Lowry method) using the supernatant to calculate a protein concentration (mg/g feces) in 1 g of feces. The mean and standard deviation of each group are shown below.

The subject of a further experiment is DIO mouse. The experiment can be described thus: Test on antiobesity action using DIO mouse. Type of experiment: in vivo. The conditions noted are these: mean ± SD; for Body weight (g) At start of administration: baseline. Here is the method:
A 0.5% methylcellulose suspension (test compound administered group, 5 or 6 mice per group) containing each test compound (20 or 60 mg/kg) or a 0.5% methylcellulose suspension (test compound non-administered group (vehicle), 6 mice per group) was orally administered to each diet-induced obesity (DIO) mouse (D12079B diet, male, 46 weeks old) once a day for 4 weeks. The means of body weights and standard deviations at the start of administration and after 4-week continuous administration are shown below.

T1 sequence (P98073 whole entry): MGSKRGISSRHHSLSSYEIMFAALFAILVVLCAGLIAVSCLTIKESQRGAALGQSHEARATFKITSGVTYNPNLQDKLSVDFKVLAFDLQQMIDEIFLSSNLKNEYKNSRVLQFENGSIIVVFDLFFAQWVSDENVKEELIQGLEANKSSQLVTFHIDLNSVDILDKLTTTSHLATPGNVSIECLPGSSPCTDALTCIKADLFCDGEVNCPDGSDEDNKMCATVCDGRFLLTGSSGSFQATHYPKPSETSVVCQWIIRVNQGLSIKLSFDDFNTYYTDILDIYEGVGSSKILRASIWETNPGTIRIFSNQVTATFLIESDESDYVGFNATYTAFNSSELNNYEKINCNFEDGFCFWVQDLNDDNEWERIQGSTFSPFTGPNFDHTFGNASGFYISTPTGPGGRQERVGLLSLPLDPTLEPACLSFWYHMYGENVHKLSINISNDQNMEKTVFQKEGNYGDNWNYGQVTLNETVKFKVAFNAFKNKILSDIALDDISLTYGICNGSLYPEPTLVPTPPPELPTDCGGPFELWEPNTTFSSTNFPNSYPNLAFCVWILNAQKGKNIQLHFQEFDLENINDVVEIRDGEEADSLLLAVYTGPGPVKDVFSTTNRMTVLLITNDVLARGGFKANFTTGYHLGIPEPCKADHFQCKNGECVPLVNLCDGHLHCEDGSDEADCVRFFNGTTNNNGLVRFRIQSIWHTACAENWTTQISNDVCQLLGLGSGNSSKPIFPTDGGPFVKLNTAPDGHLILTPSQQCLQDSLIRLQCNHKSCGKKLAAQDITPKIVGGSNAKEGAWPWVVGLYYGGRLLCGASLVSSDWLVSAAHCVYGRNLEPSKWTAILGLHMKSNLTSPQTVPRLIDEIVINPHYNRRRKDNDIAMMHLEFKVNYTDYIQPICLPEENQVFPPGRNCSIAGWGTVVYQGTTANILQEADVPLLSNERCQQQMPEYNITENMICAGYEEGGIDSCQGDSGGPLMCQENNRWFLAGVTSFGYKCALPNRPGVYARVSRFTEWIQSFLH

`N=C(N)Nc1ccc(C(=O)Oc2cccc(C3=NO[C@](CC(=O)O)(C(=O)O)C3)c2)cc1` [Example 1, (5R)-3-(3-((4-Carbamimidamidobenzoyl)oxy)phenyl)-5-(carboxymethyl)-4,5-dihydro-1,2-oxazole-5-carboxylic acid]: in experiment [1], the inhibition at 3.3 µM was 101%. The “Protein concentration in feces” value with HFD-fed mouse came out at 151.5 ± 22.8 mg/g. The “Body weight (g) After 4-week continuous administration” value in the experiment on DIO mouse (20 mg/kg oral once a day for 4 weeks) is recorded as 43.1 ± 3.5 g; with DIO mouse (60 mg/kg oral once a day for 4 weeks), 40.2 ± 2.1 g. For the same compound, the “Body weight (g) At start of administration” value is listed as 48.9 ± 2.0 g in the experiment with DIO mouse (20 mg/kg oral once a day) and 48.9 ± 2.5 g in the experiment with DIO mouse (60 mg/kg oral once a day).

Take `N=C(N)Nc1ccc(C(=O)Oc2cccc(C3=NO[C@@](CC(=O)O)(C(=O)O)C3)c2)cc1` [Example 5, (5S)-3-(3-((4-Carbamimidamidobenzoyl)oxy)phenyl)-5-(carboxymethyl)-4,5-dihydro-1,2-oxazole-5-carboxylic acid]: in experiment [1], the inhibition at 3.3 µM was 101%. Also, the “Protein concentration in feces” value in the experiment with HFD-fed mouse was found to be 144.5 ± 26.6 mg/g. Regarding `CS(=O)(=O)CCNC(=O)CCc1ccc(OC(=O)c2ccc(NC(=N)N)cc2)cc1C1=NOC(CC(=O)O)(CC(=O)O)C1` [Example 27, 2,2′-(3-(5-((4-carbamimidamidobenzoyl)oxy)-2-(3-((2-(methylsulfonyl)ethyl)amino)-3-oxopropyl)phenyl)-4,5-dihydro-1,2-oxazole-5,5-diyl)diacetic acid], in experiment [1], the inhibition at 3.3 µM was 100%. On the same count and under the same terms, with `N=C(N)Nc1ccc(C(=O)Oc2ccc(CCC(=O)N[C@@H](CC(N)=O)C(=O)O)c(C3=NOC(CC(=O)O)(CC(=O)O)C3)c2)cc1` [Example 28, N^2-(3-(2-(5,5-bis(carboxymethyl)-4,5-dihydro-1,2-oxazol-3-yl)-4-((4-carbamimidamidobenzoyl)oxy)phenyl)propanoyl)-L-asparagine] the figure was 100%; with `N=C(N)Nc1ccc(C(=O)Oc2ccc(CCC(=O)N[C@@H](CCC(N)=O)C(=O)O)c(C3=NOC(CC(=O)O)(CC(=O)O)C3)c2)cc1` [Example 29, N^2-(3-(2-(5,5-bis(carboxymethyl)-4,5-dihydro-1,2-oxazol-3-yl)-4-((4-carbamimidamidobenzoyl)oxy)phenyl)propanoyl)-L-glutamine], 100%; with `N=C(N)Nc1ccc(C(=O)Oc2ccc(CCC(=O)NCC(=O)O)c(C3=NOC(CC(=O)O)(CC(=O)O)C3)c2)cc1` [Example 30, N-(3-(2-(5,5-bis(carboxymethyl)-4,5-dihydro-1,2-oxazol-3-yl)-4-((4-carbamimidamidobenzoyl)oxy)phenyl)propanoyl)glycine], 100%. The same measure, in the same setting: with `CN(CC(=O)O)C(=O)CCc1ccc(OC(=O)c2ccc(NC(=N)N)cc2)cc1C1=NOC(CC(=O)O)(CC(=O)O)C1` [Example 31, N-(3-(2-(5,5-bis(carboxymethyl)-4,5-dihydro-1,2-oxazol-3-yl)-4-((4-carbamimidamidobenzoyl)oxy)phenyl)propanoyl)-N-methylglycine] the figure was 100%. Turning to `N=C(N)Nc1ccc(C(=O)Oc2ccc(CCC(=O)NCCC(=O)O)c(C3=NOC(CC(=O)O)(CC(=O)O)C3)c2)cc1` [Example 32, N-(3-(2-(5,5-bis(carboxymethyl)-4,5-dihydro-1,2-oxazol-3-yl)-4-((4-carbamimidamidobenzoyl)oxy)phenyl)propanoyl)-beta-alanine], the inhibition at 3.3 µM in experiment [1] amounted to 100%. Still for that read-out and setting: with `N=C(N)Nc1ccc(C(=O)Oc2ccc(CCC(=O)N3CCC(C(=O)O)CC3)c(C3=NOC(CC(=O)O)(CC(=O)O)C3)c2)cc1` [Example 33, 1-(3-(2-(5,5-Bis(carboxymethyl)-4,5-dihydro-1,2-oxazol-3-yl)-4-((4-carbamimidamidobenzoyl)oxy)phenyl)propanoyl)piperidine-4-carboxylic acid] the figure was 100%.

With `N=C(N)Nc1ccc(C(=O)Oc2ccc(CCC(=O)NCCS(=O)(=O)O)c(C3=NOC(CC(=O)O)(CC(=O)O)C3)c2)cc1` [Example 34, 2,2′-(3-(5-((4-Carbamimidamidobenzoyl)oxy)-2-(3-oxo-3-((2-sulfoethyl)amino)propyl)phenyl)-4,5-dihydro-1,2-oxazole-5,5-diyl)diacetic acid], in experiment [1], the inhibition at 3.3 µM came out at 101%.
